# Results reported in ChEMBL document CHEMBL4814006, “Novel amino substituted tetracyclic imidazo[4,5-b]pyridine derivatives: Design, synthesis, antiproliferative activity and DNA/RNA binding study” (Eur J Med Chem, 2021).
# The source made the active and inactive calls. The rule behind the calls is not given here.
# Assays:
# [1] = test system: Poly(dA-dT)oligonucleotide; assay: Binding affinity to poly(dAdT)2 DNA (unknown origin) assessed as ratio of fluorescence intensity of compound-polynucleotide complex to fluorescence intensity of compound in sodium cacodylate buffer at pH 7 by fluorescence spectroscopy based Scatchard method; format: nucleic-acid assay
# [2] = test system: HEK293; assay: Cytotoxicity against human HEK293 cells assessed as inhibition of cell growth incubated for 72 hrs by MTT assay; format: cell-based; conditions: HEK293, 72 h
# [3] = test system: HCT-116; assay: Antiproliferative activity against human HCT-116 cells assessed as inhibition of cell growth incubated for 72 hrs by MTT assay; format: functional, cell-based; conditions: HCT-116, 72 h
# [4] = test system: Poly(dA-dU)oligonucleotide; assay: Binding affinity to polyA-polyU RNA (unknown origin) assessed as ratio of bound compound to polynucleotide phosphate in sodium cacodylate buffer at pH 7 by fluorescence spectroscopy based Scatchard method; format: nucleic-acid assay
# [5] = test system: Poly(dG-dC)oligonucleotide; assay: Binding affinity to poly(dGdC)2 DNA (unknown origin) in sodium cacodylate buffer at pH 7 by CD spectroscopy; format: nucleic-acid assay
# [6] = test system: Poly(dA-dU)oligonucleotide; assay: Binding affinity to polyA-polyU RNA (unknown origin) assessed as ratio of fluorescence intensity of compound-polynucleotide complex to fluorescence intensity of compound in sodium cacodylate buffer at pH 7 by fluorescence spectroscopy based Scatchard method; format: nucleic-acid assay
# [7] = test system: Poly(dA-dU)oligonucleotide; assay: Binding affinity to polyA-polyU RNA (unknown origin) assessed as binding constant in sodium cacodylate buffer at pH 7 by fluorescence spectroscopy; format: nucleic-acid assay
# [8] = test system: Poly(dA-dU)oligonucleotide; assay: Binding affinity to polyA-polyU RNA (unknown origin) assessed as change in melting temperature in sodium cacodylate buffer at pH 7 at compound:polynucleotide concentration ratio of 0.3 by UV/vis spectrophotometric analysis; format: nucleic-acid assay
# [9] = test system: NCI-H460; assay: Antiproliferative activity against human NCI-H460 cells assessed as inhibition of cell growth incubated for 72 hrs by MTT assay; format: functional, cell-based; conditions: NCI-H460, 72 h
# [10] = test system: Poly(dA-dT)oligonucleotide; assay: Binding affinity to poly(dAdT)2 DNA (unknown origin) assessed as change in melting temperature in sodium cacodylate buffer at pH 7 at compound:polynucleotide concentration ratio of 0.3 by UV/Vis spectrophotometric analysis; format: nucleic-acid assay
# [11] = test system: Quadruplex DNA; assay: Binding affinity to human Tel22 G quadruplex DNA assessed as change in melting temperature in sodium cacodylate buffer at pH 7 by UV/Vis spectrophotometric analysis; format: nucleic-acid assay
# [12] = test system: MCF7; assay: Antiproliferative activity against human MCF7 cells assessed as inhibition of cell growth incubated for 72 hrs by MTT assay; format: functional, cell-based; conditions: MCF7, 72 h
# [13] = test system: Poly(dA-dT)oligonucleotide; assay: Binding affinity to poly(dAdT)2 DNA (unknown origin) assessed as ratio of bound compound to polynucleotide phosphate in sodium cacodylate buffer at pH 7 by fluorescence spectroscopy based Scatchard method; format: nucleic-acid assay
# [14] = test system: Poly(dA-dT)oligonucleotide; assay: Binding affinity to poly(dAdT)2 DNA (unknown origin) assessed as binding constant in sodium cacodylate buffer at pH 7 by fluorescence spectroscopy; format: nucleic-acid assay
# [15] = test system: Calf thymus DNA; assay: Binding affinity to calf thymus DNA in sodium cacodylate buffer at pH 7 by CD spectroscopy; conditions: Bos taurus
# [16] = test system: Calf thymus DNA; assay: Binding affinity to calf thymus DNA assessed as change in melting temperature in sodium cacodylate buffer at pH 7 at compound:polynucleotide concentration ratio of 0.3 by UV/Vis spectrophotometric analysis; format: nucleic-acid assay; conditions: Bos taurus
# [17] = test system: Poly(dA-dT)oligonucleotide; assay: Binding affinity to poly(dAdT)2 DNA (unknown origin) in sodium cacodylate buffer at pH 7 by CD spectroscopy; format: nucleic-acid assay
# [18] = test system: Quadruplex DNA; assay: Binding affinity to human Tel22 G quadruplex DNA assessed as binding constant in sodium cacodylate buffer at pH 7 at binding stoichiometry ratio of 1:1 by fluorescence spectroscopy; format: nucleic-acid assay
# [19] = test system: Quadruplex DNA; assay: Binding affinity to human Tel22 G quadruplex DNA assessed as ratio of fluorescence intensity of compound-polynucleotide complex to fluorescence intensity of compound in sodium cacodylate buffer at pH 7 at binding stoichiometry ratio of 1:1 by fluorescence spectroscopy; format: nucleic-acid assay
# [20] = Selectivity index, ratio of IC50 for human HEK293 cells to IC50 for human HCT116 cells; format: toxicity; conditions: HEK293 cells versus HCT116 cells, read-out: Ratio IC50
Structure (SMILES),Ratio [1],IC50 [2],IC50 [3],Ratio [4],Activity [5],Ratio [6],log Ks [7],ΔTm [8],IC50 [9],ΔTm [10],ΔTm [11],IC50 [12],Ratio [13],log Ks [14],Activity [15],ΔTm [16],Activity [17],log Ks [18],Ratio [19],selectivity ratio [20]
CC(C)CNc1c(C#N)c2nc3cccnc3n2c2ccccc12,10.4,> 100 µM,≥ 100 µM,< 0.1,inactive,2.5,5.3,0 °C,≥ 100 µM,0.8 °C,1.8 °C,≥ 100 µM,0.1,4.6,Active,0.8 °C,Active,4.51,5.52,–
N#Cc1c(Cl)c2ccccc2n2c1nc1ncccc12,–,1.6 µM,0.1 µM,–,–,–,–,–,4.6 µM,–,–,2 µM,–,–,–,–,–,–,–,16
